These molecules were tested against WT A/M2 proton channel (Influenza A virus, UniProt P0DOF5). Settings: TEVC.
WT A/M2 proton channel, sequence (P0DOF5 whole entry, looked up): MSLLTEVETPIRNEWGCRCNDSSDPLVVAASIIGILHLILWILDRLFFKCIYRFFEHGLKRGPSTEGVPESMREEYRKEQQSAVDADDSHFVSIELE
Assay type: cell-based
`NN1C(=O)CC2(CCCCC2)CC1=O` [Compound 17] was tested, and the “activity against WT A/M2 channel (in words)” value (from here on “activity”) was “only weakly active”.
In the case of `OC1C2C3CC4C1C1C2CC3C41` (stereo not drawn) [Compound 19], the “activity” value is reported as “only moderate inhibition”.
`CC12CC3(O)CC1(C)CC3(O)C2` [Compound 26] was tested, and the “activity” value was “only moderately active”.
`O=S(=O)(O)C12CC3CC(CC(C3)C1)C2` [Compound 3, 1-adamantyl sulfonic acid] was tested, and the “activity” value was “inactive”.
`Cl.NC12CC3CC(C1)CC(CO)(C3)O2` [Compound 25] was tested, and the “activity” value was “not active”.
`O=C1CC2(CCCCC2)CC(=O)N1` [Compound 16] was tested, and the “activity” value was “only weakly active”.
